34 compounds from patent US7491827B2, “Aryl sulfonamides useful as inhibitors of chemokine receptor activity” (Millennium Pharmaceuticals, Inc., priority 2003, dated 2009) can be followed below.

T1 sequence (P51685 whole entry): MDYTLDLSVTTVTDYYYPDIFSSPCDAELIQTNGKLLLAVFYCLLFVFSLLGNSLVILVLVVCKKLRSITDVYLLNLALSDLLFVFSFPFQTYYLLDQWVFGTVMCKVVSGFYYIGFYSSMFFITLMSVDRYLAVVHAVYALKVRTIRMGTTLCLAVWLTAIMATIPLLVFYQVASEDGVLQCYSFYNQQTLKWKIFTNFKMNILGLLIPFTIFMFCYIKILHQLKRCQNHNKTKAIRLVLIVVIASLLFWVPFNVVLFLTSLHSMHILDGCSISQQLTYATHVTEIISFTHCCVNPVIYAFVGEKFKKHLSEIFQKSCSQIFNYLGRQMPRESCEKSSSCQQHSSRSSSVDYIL

One assay concerns the target T1, cloned human CCR8 receptor stably expressed in L1.2 cells (Homo sapiens, UniProt P51685).
T1 construct: expressed in transfected cells
As to the kind of experiment: whole cell binding screen: inhibition of biotinylated human I309 binding to CCR8 (FMAT 8100 HTS). The note with it: Ki of compounds to inhibit I-309 binding to CCR8, L1.2/hCCR8 cells, biotinylated human I-309, 10 point concentration response starting at 10 μM. Summed up: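 L1.2 murine pre-B cells stably expressing human CCR8 (4.0×10^5 cells/mL) in HBSS/HEPES/fatty-acid-free BSA/azide buffer were mixed with biotinylated human I309 and compounds for 0.5 h, read by FMAT fluorescence. 10-point curves from 10 μM final; percent inhibition normalized to no-inhibitor and 100 nM unlabeled I309 controls.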
Consider `CCOC(=O)N1CCC(NS(=O)(=O)c2cccc3c(NC(=O)c4ccccc4)cccc23)CC1` [Compound H-6, 4-(5-Benzoylamino-naphthalene-1-sulfonylamino)-piperidine-1-carboxylic acid ethylester], for which the inhibition constant (Ki) is < 500 nM.

Staying with this assay, now noted: L1.2/hCCR8 cells, biotinylated human I-309, 10 point concentration response starting at 10 μM; read-out: Ki of compounds to inhibit I-309 binding to CCR8.
Regarding `CCOC(=O)N1CCC(NS(=O)(=O)c2ccc(CNCc3ccoc3)c3ccccc23)CC1` [Compound G-14, 4-(4-{[(Furan-3-ylmethyl)-amino]-methyl}-naphthalene-1-sulfonylamino)-piperidine-1-carboxylic acid ethyl ester], the inhibition constant Ki was < 500 nM.

Turning to `CCOC(=O)N1CCC(NS(=O)(=O)c2ccc(CNCc3ccncc3)c3ccccc23)CC1` [Compound G-15, 4-(4-{[(Pyridin-4-ylmethyl)-ainno]-methyl}-naphthalene-1-sulfonylamino)-piperidine-1-carboxylic acid ethyl ester], the inhibition constant (Ki) was < 1000 nM.

As to `CCOC(=O)N1CCC(NS(=O)(=O)c2ccc(CN(CC)C3CCCCC3)c3ccccc23)CC1` [Compound G-20, 4-{4-[(Cyclohexyl-ethyl-amino)-methyl]-naphthalene-1-sulfonylamino}-piperidine-1-carboxylic acid ethyl ester], the inhibition constant (Ki) is < 500 nM.

As to `CCOC(=O)N1CCC(NS(=O)(=O)c2ccc(CNCc3ccccc3Cl)c3ccccc23)CC1` [Compound G-21, 4-{4-[(2-Chloro-benzylamino)-methyl]-naphthalene-1-sulfonylamino}-piperidine-1-carboxylic acid ethyl ester], the Ki was < 500 nM.

As to `CCOC(=O)N1CCC(NS(=O)(=O)c2ccc(CNCCc3ccccc3)c3ccccc23)CC1` [Compound G-24, 4-[4-(Phenethylamino-methyl)-naphthalene-1-sulfonylamino]-piperidine-1-carboxylic acid ethyl ester], the Ki is < 500 nM.

Consider `CCOC(=O)N1CCC(NS(=O)(=O)c2ccc(CNC3CCN(C)CC3)c3ccccc23)CC1` [Compound G-25, 4-{4-[(1-Methyl-piperidin-4-ylamino)-methyl]-naphthalene-1-sulfonylamino}-piperidine-1-carboxylic acid ethyl ester], for which the inhibition constant Ki is < 30000 nM.

Regarding `CCOC(=O)N1CCC(NS(=O)(=O)c2ccc(CNCC3CCCCC3)c3ccccc23)CC1` [Compound G-27, 4-{4-[(Cyclohexylmethyl-amino)-methyl]-naphthalene-1-sulfonylamino}-piperidine-1-carboxylic acid ethyl ester], the Ki is < 500 nM.

As to `O=S(=O)(NC1CCCCC1)c1ccc(CNC2CCCCC2)c2ccccc12` [Compound G-31, 4-Cyclohexylaminomethyl-naphthalene-1-sulfonic acid cyclohexylamide], the Ki was < 500 nM.

Take `CCOC(=O)N1CCC(NS(=O)(=O)c2ccc(CNCc3ccccc3)c3ccccc23)CC1` [Compound G-32, 4-[4-(Benzylamino-methyl)-naphthalene-1-sulfonylamino]-piperidine-1-carboxylic acid ethyl ester]: the Ki is < 500 nM.

For `COc1ccc(NS(=O)(=O)c2cccc3c(NC(=O)c4ccccc4)cccc23)cc1` [Compound H-1, N-[5-(4-Methoxy-phenylsulfamoyl)-naphthalen-1-yl]-benzamide], the Ki was < 500 nM.

As to `CCc1ccc(NS(=O)(=O)c2cccc3c(NC(=O)c4ccccc4)cccc23)cc1` [Compound H-2, N-[5-(4-Ethyl-phenylsulfamoyl)-naphthalen-1-yl]-benzamide], the inhibition constant Ki was < 30000 nM.

With `O=C(Nc1cccc2c(S(=O)(=O)Nc3ccc(F)cc3)cccc12)c1ccccc1` [Compound H-4, N-[5-(4-Fluoro-phenylsulfamoyl)-naphthalen-1-yl]-benzamide], the inhibition constant Ki was < 30000 nM.

On to `O=C(Nc1cccc2c(S(=O)(=O)NC3CCCCC3)cccc12)c1ccccc1` [Compound H-5, N-(5-Cyclohexylsulfamoyl-naphthalen-1-yl)-benzamide], for which the inhibitory constant (Ki) is < 500 nM.

Take `CCOC(=O)N1CCC(NS(=O)(=O)c2cccc3c(NC(=O)C4CCCCC4)cccc23)CC1` [Compound H-7, 4-[5-(Cyclohexanecarbonyl-amino)-naphthalene-1-sulfonylamino]-piperidine-1-carboxylic acid ethyl ester]: the inhibition constant Ki is < 500 nM.

Regarding `CCOC(=O)N1CCC(NS(=O)(=O)c2cccc3c(NC(=O)c4ccco4)cccc23)CC1` [Compound H-8, 4-{5-[(Furan-2-carbonyl)-amino]-naphthalene-1-sulfonylamino}-piperidine-1-carboxylic acid ethyl ester], the inhibition constant Ki is < 500 nM.

Regarding `CCOC(=O)N1CCC(NS(=O)(=O)c2cccc3c(NC(=O)c4cccs4)cccc23)CC1` [Compound H-9, 4-15-[(Thiophene-2-carbonyl)-amino]-naphthalene-4-sulfonylamino-4-piperidine-1-carboxylic acid ethyl ester], the inhibition constant (Ki) was < 1000 nM.

`O=C(Nc1cccc2c(S(=O)(=O)NC3CCN(C(=O)N4CCOCC4)CC3)cccc12)c1ccccc1` [Compound H-10]: the inhibitory constant (Ki) is < 500 nM.

In the case of `Cc1ccccc1C(=O)Nc1cccc2c(S(=O)(=O)NC3CCN(C(=O)N4CCOCC4)CC3)cccc12` [Compound H-11, 2-Methyl-N-{5-[1-(morpholine-4-carbonyl)-piperidin-4-ylsulfamoyl]-naphthalen-1-yl}-benzamide], the Ki is < 500 nM.

On to `CCOC(=O)N1CCC(NS(=O)(=O)c2cccc3c(NC(=O)c4ccccc4C)cccc23)CC1` [Compound H-12, 4-[5-(2-Methyl-benzoylamino)-naphthalene-1-sulfonylamino]-piperidine-1-carboxylic acid ethyl ester], for which the Ki is < 1000 nM.

On to `CCOC(=O)N1CCC(NS(=O)(=O)c2cccc3c(NC(=O)c4cccc(C)c4)cccc23)CC1` [Compound H-13, 4-[5-(3-Methyl-benzoylamino)-naphthalene-1-sulfonylamino]-piperidine-1-carboxylic acid ethyl ester], for which the inhibition constant (Ki) was < 30000 nM.

Take `CCN1CCC(NS(=O)(=O)c2cccc3c(NC(=O)c4ccccc4C)cccc23)CC1` [Compound H-14, N-[5-(1-Ethyl-piperidin-4-ylsulfamoyl)-naphthalen-1-yl]-2-methyl-benzamide]: the Ki was < 500 nM.

For `CCOC(=O)N1CCC(NS(=O)(=O)c2cccc3c(NC(=O)c4ccc(C)cc4)cccc23)CC1` [Compound H-15, 4-[5-(4-Methyl-benzoylamino)-naphthalene-1-sulfonylamino]-piperidine-1-carboxylic acid ethyl ester], the Ki was < 1000 nM.

With `CCOC(=O)N1CCC(NS(=O)(=O)c2cccc3c(NC(=O)c4ccc(C)s4)cccc23)CC1` [Compound H-16, 4-{5-[(5-Methyl-thiophene-2-carbonyl)-amino]-naphthalene-1-sulfonylamino}-piperidine-1-carboxylic acid ethyl ester], the Ki is < 500 nM.

Take `CCOC(=O)N1CCC(NS(=O)(=O)c2cccc3c(NC(=O)N4CCOCC4)cccc23)CC1` [Compound H-17, 4-{5-[(Morpholine-4-carbonyl)-amino]-naphthalene-1-sulfonylamino}-piperidine-1-carboxylic acid ethyl ester]: the Ki was < 1000 nM.

As to `CCOC(=O)N1CCC(NS(=O)(=O)c2cccc3c(NC(=O)c4cc5ccccc5s4)cccc23)CC1` [Compound H-18, 4-{5-[(Benzo[b]thiophene-2-carbonyl)-amino]-naphthalene-1-suffonylamino}-piperidine-1-carboxylic acid ethyl ester], the inhibitory constant (Ki) is < 500 nM.

As for `CCOC(=O)c1ccc(NS(=O)(=O)c2cccc3c(NC(=O)c4ccccc4C)cccc23)cc1` [Compound H-19, 4-[5-(2-Methyl-benzoylamino)-naphthalene-1-sulfonylamino]-benzoic acid ethyl ester], the inhibition constant Ki is < 30000 nM.

With `CCOC(=O)N1CCC(NS(=O)(=O)c2cccc3c(NC(=O)c4cc(C)oc4C)cccc23)CC1` [Compound H-20, 4-{5-[(2,5-Dimethyl-furan-3-carbonyl)-amino]-naphthalene-1-suffonylamino}-piperidine-1-carboxylic acid ethyl ester], the inhibitory constant (Ki) was < 1000 nM.

In the case of `Cc1ccccc1C(=O)Nc1cccc2c(S(=O)(=O)Nc3ccc(Cl)cc3)cccc12` [Compound H-21, N-[5-(4-Chloro-phenylsulfamoyl)-naphthalen-1-yl]-2-methyl-benzamide], the inhibition constant Ki was < 1000 nM.

Regarding `CCOC(=O)N1CCC(NS(=O)(=O)c2cccc3c(NC(=O)C4CCCCC4)c(C)ccc23)CC1` [Compound H-22, 4-[5-(Cyclohexanecarbonyl-amino)-6-methyl-naphthalene-1-sulfonylamino]-piperidine-1-carboxylic acid ethyl ester], the Ki is < 1000 nM.

As for `CCOC(=O)N1CCC(NS(=O)(=O)c2cccc3c(C(=O)NC4CCCCC4)cccc23)CC1` [Compound H-25, 4-(5-Cyclohexylcarbamoyl-naphthalene-1-suffonylamino)-piperidine-1-carboxylic acid ethyl ester], the inhibitory constant (Ki) was < 1000 nM.

With `CCOC(=O)N1CCC(NS(=O)(=O)c2cccc3c(C(=O)Nc4ccccc4)cccc23)CC1` [Compound H-27, 4-(5-Phenylcarbamoyl-naphthalene-1-sulfonylamino)-piperidine-1-carboxylic acid ethyl ester], the inhibition constant Ki is < 1000 nM.

With `CCOC(=O)N1CCC(NS(=O)(=O)c2cccc3c(C(=O)Nc4ccccc4C)cccc23)CC1` [Compound H-28, 4-(5-o-Tolylcarbamoyl-naphthalene-1-sulfonylamino)-piperidine-1-carboxylic acid ethyl ester], the Ki is < 500 nM.

Consider `Cc1ccccc1NC(=O)c1cccc2c(S(=O)(=O)NC3CCN(C(=O)N(C)C)CC3)cccc12` [Compound H-32, 4-(5-o-Tolylcarbamoyl-naphthalene-1-sulfonylamino)-piperidine-1-carboxylic acid dimethylamide], for which the inhibition constant (Ki) is < 500 nM.
